For 17 compounds, IC50 results are on record in US20050222146A1, “N-substituted-n-sulfonylaminocyclopropane compounds and pharmaceutical use thereof” (priority 2003, published 2005).

One may read the IC50 as the concentration that gives 50% inhibition.

For one experiment, the target named is T1, MMP-1 (Homo sapiens, UniProt P03956).
T1 sequence (P03956 100-469): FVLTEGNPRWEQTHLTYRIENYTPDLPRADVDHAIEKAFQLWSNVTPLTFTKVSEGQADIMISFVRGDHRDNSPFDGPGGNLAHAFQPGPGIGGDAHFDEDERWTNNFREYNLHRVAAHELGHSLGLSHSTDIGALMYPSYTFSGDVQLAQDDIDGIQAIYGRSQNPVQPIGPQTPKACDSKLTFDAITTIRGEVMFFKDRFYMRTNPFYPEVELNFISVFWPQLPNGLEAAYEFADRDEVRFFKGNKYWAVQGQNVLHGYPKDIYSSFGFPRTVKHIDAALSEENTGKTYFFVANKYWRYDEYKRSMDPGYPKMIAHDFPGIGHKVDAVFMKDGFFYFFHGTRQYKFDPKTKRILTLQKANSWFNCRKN
Nature of the experiment: MMP-1 inhibitory action, Type I collagen Activity Measurement kit (FITC-labeled collagen type I). Format: biochemical. The settings on record: 37° C. for 3 hr, read-out: Experimental Example 2 IC50 MMP1. The method, then:
For MMP-1 Assay, Type I collagen Activity Measurement kit (YAGAI YU-72013) modified to a 96-well plate format was used.
The principle of the kit is based on the property of collagen that becomes soluble in ethanol after being cleaved by MMP-1.
(§1) The enzyme and substrate were diluted with Tris-HCl buffer, and test compounds were diluted with dimethyl sulfoxide (DMSO).
The enzyme and test compounds were added into 96-well plate, and fluorescein isothiocianate (FITC)-labeled collagen type I was added as a substrate and the mixture was incubated at 37° C. for 3 hr.
The reaction was terminated by addition of Tris-HCl buffer containing ethanol. After centrifugation, the supernatant containing denatured substrate was transferred to another 96-well plate. The collagenase activity of MMP-1 was determined by measuring FITC fluorescence intensity (excitation wavelength 485 nm, emission wavelength 530 nm) of each well. The inhibitory activity of the compound in each well (%) was calculated based on the values of enzyme-free well and inhibitor-free well. The inhibitory activity of the compound was represented as IC50 (μM).

Another experiment has as its target T2, aggrecanase-1 (Homo sapiens, UniProt O75173).
T2 sequence (O75173 213-837): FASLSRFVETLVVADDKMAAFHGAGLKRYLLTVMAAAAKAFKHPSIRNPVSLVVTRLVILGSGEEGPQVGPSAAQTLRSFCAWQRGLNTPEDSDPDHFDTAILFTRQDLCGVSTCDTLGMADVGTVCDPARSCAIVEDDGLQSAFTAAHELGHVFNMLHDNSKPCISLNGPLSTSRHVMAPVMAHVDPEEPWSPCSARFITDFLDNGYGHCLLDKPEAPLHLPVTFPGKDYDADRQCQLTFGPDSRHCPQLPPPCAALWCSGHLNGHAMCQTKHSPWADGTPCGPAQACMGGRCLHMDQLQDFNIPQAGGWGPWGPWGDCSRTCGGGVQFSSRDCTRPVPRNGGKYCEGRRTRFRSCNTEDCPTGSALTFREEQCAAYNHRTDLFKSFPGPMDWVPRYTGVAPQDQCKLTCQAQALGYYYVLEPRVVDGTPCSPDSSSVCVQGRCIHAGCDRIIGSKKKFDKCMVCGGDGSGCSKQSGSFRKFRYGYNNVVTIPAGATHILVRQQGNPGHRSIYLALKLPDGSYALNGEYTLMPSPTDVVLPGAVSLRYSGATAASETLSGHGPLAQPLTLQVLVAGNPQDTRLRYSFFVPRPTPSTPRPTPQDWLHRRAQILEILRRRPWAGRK
Put plainly: Aggrecanase-1 inhibitory action, Particle Assay (GAG release from aggrecan-containing polyacrylamide particles). Format: biochemical. The settings on record: 37° C. for 15 hr, read-out: Experimental Example 1 IC50 AG1. Here is the method:
Aggrecanase-1 Inhibitory Action
Particle Assay was used for determination of aggrecanase activity.
as §1
Test compounds and the enzyme were added into 96-well plate, and polyacrylamide particles containing aggrecan were added as a substrate and the mixture was incubated at 37° C. for 15 hr.
After incubation; the supernatant was transferred to another plate, and mixed with 1,9-dimethylmethylene blue. The absorbance at 595 nm was measured to quantify the amount of glycosaminoglycan (GAG) released in the reaction supernatant. Whale chondroitin sulfate was used as the standard of GAG. The inhibitory activity of the compound in each well (%) was calculated based on the values of enzyme-free well and inhibitor-free well. The inhibitory activity of the compound was represented as IC50 (μM).

As to `O=C(O)CN([C@]1(C(=O)O)C[C@H]1c1ccccc1-c1ccccc1)S(=O)(=O)c1ccc(-c2ccc(Cl)cc2)cc1` (relative stereo) [Example 1-26, (1R*,2S*)-2-biphenyl-2-yl-1-[carboxymethyl-(4′-chloro-biphenyl-4-sulfonyl)-amino]-cyclopropanecarboxylic acid], the concentration for half-maximal inhibition (IC50) at MMP-1 was at least 10 µM; on aggrecanase-1, below 1 µM.
Take `N#Cc1cccc([C@@H]2C[C@@]2(C(=O)O)N(CC(=O)O)S(=O)(=O)c2ccc(-c3ccc(Cl)cc3)cc2)c1` (relative stereo) [Example 1-27, (1R*,2S*)-1-[carboxymethyl-(4′-chloro-biphenyl-4-sulfonyl)-amino]-2-(3-cyano-phenyl)-cyclopropanecarboxylic acid]: the concentration for half-maximal inhibition (IC50) on MMP-1 was at least 10 µM; at aggrecanase-1, below 0.1 µM.
Regarding `N#Cc1ccccc1[C@@H]1C[C@@]1(C(=O)O)N(CC(=O)O)S(=O)(=O)c1ccc(-c2ccc(Cl)cc2)cc1` (relative stereo) [Example 1-28, (1R*,2S*)-1-[carboxymethyl-(4′-chloro-biphenyl-4-sulfonyl)-amino]-2-(2-cyano-phenyl)-cyclopropanecarboxylic acid], the half-inhibitory concentration (IC50) on MMP-1 was at least 10 µM; at aggrecanase-1, below 1 µM.
With `O=C(O)CN([C@]1(C(=O)O)C[C@H]1c1c(Cl)cccc1Cl)S(=O)(=O)c1ccc(-c2ccc(Cl)cc2)cc1` (relative stereo) [Example 1-29, (1R*,2S*)-1-[carboxymethyl-(4′-chloro-biphenyl-4-sulfonyl)-amino]-2-(2,6-dichloro-phenyl)-cyclopropanecarboxylic acid], the values for the concentration for half-maximal inhibition (IC50) on MMP-1 and at aggrecanase-1 were at least 10 µM and below 1 µM, respectively.
The matching figures for `N#Cc1ccc([C@@H]2C[C@@]2(C(=O)O)N(CC(=O)O)S(=O)(=O)c2ccc(-c3ccc(Cl)cc3)cc2)cc1` (relative stereo) [Example 1-30, (1R*,2S*)-1-[carboxymethyl-(4′-chloro-biphenyl-4-sulfonyl)-amino]-2-(4-cyano-phenyl)-cyclopropanecarboxylic acid]: at least 10 µM and below 1 µM.
Take `O=C(O)CN([C@]1(C(=O)O)C[C@H]1c1ccccc1Cc1ccccc1)S(=O)(=O)c1ccc(-c2ccc(Cl)cc2)cc1` (relative stereo) [Example 1-31, (1R*,2S*)-2-(2-benzyl-phenyl)-1-[carboxymethyl-(4′-chloro-biphenyl-4-sulfonyl)-amino]-cyclopropanecarboxylic acid]: the IC50 at MMP-1 is at least 10 µM; at aggrecanase-1, below 0.1 µM.
Regarding `O=C(O)CN([C@]1(C(=O)O)C[C@H]1c1ccc(-c2ccccc2)cc1)S(=O)(=O)c1ccc(-c2ccc(Cl)cc2)cc1` (relative stereo) [Example 1-32, (1R*,2S*)-2-biphenyl-4-yl-1-[carboxymethyl-(4′-chloro-biphenyl-4-sulfonyl)-amino]-cyclopropanecarboxylic acid], the values for the IC50 on MMP-1 and on aggrecanase-1 were at least 10 µM and below 1 µM, respectively.
The matching figures for `O=C(O)CN([C@]1(C(=O)O)C[C@H]1c1ccccc1C(F)(F)F)S(=O)(=O)c1ccc(-c2ccc(Cl)cc2)cc1` (relative stereo) [Example 1-33, (1R*,2S*)-1-[carboxymethyl-(4′-chloro-biphenyl-4-sulfonyl)-amino]-2-(2-trifluoromethyl-phenyl)-cyclopropanecarboxylic acid]: at least 10 µM and below 1 µM.
`O=C(O)CN([C@]1(C(=O)O)C[C@H]1c1cccc(C(F)(F)F)c1)S(=O)(=O)c1ccc(-c2ccc(Cl)cc2)cc1` (relative stereo) [Example 1-34, (1R*,2S*)-1-[carboxymethyl-(4′-chloro-biphenyl-4-sulfonyl)-amino]-2-(3-trifluoromethyl-phenyl)-cyclopropanecarboxylic acid]: the IC50 on MMP-1 was at least 10 µM; on aggrecanase-1, below 0.1 µM.
In the case of `O=C(O)CN([C@]1(C(=O)O)C[C@H]1c1cc(Cl)ccc1C(F)(F)F)S(=O)(=O)c1ccc(-c2ccc(Cl)cc2)cc1` (relative stereo) [Example 1-35, (1R*,2S*)-1-[carboxymethyl-(4′-chloro-biphenyl-4-sulfonyl)-amino]-2-(5-chloro-2-trifluoromethyl-phenyl)-cyclopropanecarboxylic acid], the half-maximal inhibitory concentration (IC50) was at least 10 µM on MMP-1 and below 1 µM at aggrecanase-1.
Regarding `CC(C)(CN([C@]1(C(=O)O)C[C@H]1c1ccccc1)S(=O)(=O)c1ccc(-c2ccc(Cl)cc2)cc1)C(=O)O` (relative stereo) [Example 1-37, (1R*,2S*)-1-[(2-carboxy-2-methyl-propyl)-(4′-chloro-biphenyl-4-sulfonyl)-amino]-2-phenyl-cyclopropanecarboxylic acid], the IC50 on MMP-1 was at least 10 µM; at aggrecanase-1 it was below 1 µM.
As for `CS(=O)(=O)NC(=O)CN([C@]1(C(=O)O)C[C@H]1c1ccccc1)S(=O)(=O)c1ccc(-c2ccc(Cl)cc2)cc1` (relative stereo) [Example 1-38, (1R*,2S*)-1-[(4′-chloro-biphenyl-4-sulfonyl)-(2-methanesulfonylamino-2-oxo-ethyl)-amino]-2-phenyl-cyclopropanecarboxylic acid], the IC50 at MMP-1 was at least 10 µM; on aggrecanase-1, below 1 µM.
The like results for `O=C(O)CN([C@]1(C(=O)O)C[C@H]1c1cccc(OCc2ccccc2)c1)S(=O)(=O)c1ccc(-c2ccc(Cl)cc2)cc1` (relative stereo) [Example 1-39, (1R*,2S*)-2-(3-benzyloxy-phenyl)-1-[carboxymethyl-(4′-chloro-biphenyl-4-sulfonyl)-amino]-cyclopropanecarboxylic acid] were, in that order, at least 10 µM and below 0.1 µM.
For the compound `O=C(O)CN([C@]1(C(=O)O)C[C@H]1c1ccccc1OCc1ccccc1)S(=O)(=O)c1ccc(-c2ccc(Cl)cc2)cc1` (relative stereo) [Example 1-40, (1R*,2S*)-2-(2-benzyloxy-phenyl)-1-[carboxymethyl-(4′-chloro-biphenyl-4-sulfonyl)-amino]-cyclopropanecarboxylic acid], the IC50 is at least 10 µM on MMP-1 and below 0.1 µM on aggrecanase-1.
The matching figures for `O=C(O)CN([C@]1(C(=O)O)C[C@H]1c1cccc(Cl)c1Cl)S(=O)(=O)c1ccc(-c2ccc(Cl)cc2)cc1` (relative stereo) [Example 1-41, (1R*,2S*)-1-[carboxymethyl-(4′-chloro-biphenyl-4-sulfonyl)-amino]-2-(2,3-dichloro-phenyl)-cyclopropanecarboxylic acid]: at least 10 µM and below 0.1 µM.
`O=C(O)CN([C@]1(C(=O)O)C[C@H]1c1ccccc1Oc1ccccc1)S(=O)(=O)c1ccc(-c2ccc(Cl)cc2)cc1` (relative stereo) [Example 1-42, (1R*,2S*)-1-[carboxymethyl-(4′-chloro-biphenyl-4-sulfonyl)-amino]-2-(2-phenoxy-phenyl)-cyclopropanecarboxylic acid]: the 50% inhibitory concentration (IC50) at MMP-1 was at least 10 µM; at aggrecanase-1, below 0.1 µM.
The matching figures for `O=C(CN([C@]1(C(=O)O)C[C@H]1c1ccccc1)S(=O)(=O)c1ccc(-c2ccc(Cl)cc2)cc1)N1CC(O)C(O)C1` (relative stereo) [Example 1-43, (1R*,2S*)-1-{(4′-chloro-biphenyl-4-sulfonyl)-[2-(3,4-dihydroxy-pyrrolidin-1-yl)-2-oxo-ethyl]-amino}-2-phenyl-cyclopropanecarboxylic acid]: at least 10 µM and below 1 µM.
